Literature values, collected in patent US20120095087A1, “ENHANCED PRODUCTS BY SUSTAINABLE PROCESSES FOR MEDICINAL USE” (priority 2010, published 2012).

How the values were obtained:
CB2 receptors = CB2 receptors (Homo sapiens, UniProt P34972)
GPR55 = GPR55 (Homo sapiens, UniProt Q9Y2T6); conditions: putative new cannabinoid receptor
5-HT1A receptor = biological target: T1, 5-HT1A receptor (Homo sapiens, UniProt P08908)
T1 sequence (P08908 1-422): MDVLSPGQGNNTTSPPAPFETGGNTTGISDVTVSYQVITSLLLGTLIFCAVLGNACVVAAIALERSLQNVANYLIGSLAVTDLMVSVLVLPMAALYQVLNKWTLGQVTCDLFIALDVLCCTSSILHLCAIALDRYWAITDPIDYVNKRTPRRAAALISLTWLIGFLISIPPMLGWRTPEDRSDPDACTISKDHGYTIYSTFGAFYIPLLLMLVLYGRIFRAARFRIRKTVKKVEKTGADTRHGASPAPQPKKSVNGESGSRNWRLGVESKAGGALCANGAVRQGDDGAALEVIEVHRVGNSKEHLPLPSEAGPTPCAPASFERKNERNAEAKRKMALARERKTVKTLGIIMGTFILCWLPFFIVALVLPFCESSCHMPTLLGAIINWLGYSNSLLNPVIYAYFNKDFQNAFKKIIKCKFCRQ

[1] = animal tests
cancer cell growth = conditions: low potency in non-cancer cells
gene ID1 = conditions: in vitro

Chain of CB2 receptors (P34972 whole entry): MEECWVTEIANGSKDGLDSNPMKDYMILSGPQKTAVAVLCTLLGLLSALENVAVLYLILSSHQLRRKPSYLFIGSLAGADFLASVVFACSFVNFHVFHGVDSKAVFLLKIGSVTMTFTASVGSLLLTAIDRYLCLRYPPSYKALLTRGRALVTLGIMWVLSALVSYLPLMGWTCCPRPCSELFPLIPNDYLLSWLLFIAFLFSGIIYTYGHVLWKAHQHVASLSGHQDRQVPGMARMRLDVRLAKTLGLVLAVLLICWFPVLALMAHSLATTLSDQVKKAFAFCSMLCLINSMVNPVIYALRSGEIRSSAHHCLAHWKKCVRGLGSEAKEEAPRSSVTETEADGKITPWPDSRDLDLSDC
Chain of GPR55 (Q9Y2T6 whole entry, species assumed): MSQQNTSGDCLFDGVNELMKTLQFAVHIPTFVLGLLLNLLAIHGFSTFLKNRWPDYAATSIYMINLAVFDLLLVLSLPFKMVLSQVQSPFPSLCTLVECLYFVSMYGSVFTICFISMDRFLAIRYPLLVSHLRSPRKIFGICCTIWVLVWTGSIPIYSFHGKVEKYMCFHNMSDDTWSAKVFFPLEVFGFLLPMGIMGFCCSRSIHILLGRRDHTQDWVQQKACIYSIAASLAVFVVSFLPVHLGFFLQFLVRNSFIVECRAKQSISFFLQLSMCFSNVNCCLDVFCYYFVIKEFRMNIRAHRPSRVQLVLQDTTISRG

| SMILES | affinity for CB2 receptors (CB2 receptors) | action at GPR55 (GPR55) | action at 5-HT1A receptor (5-HT1A receptor) | sedative effects [1] | cancer cell growth (cancer cell growth) | activity of the gene ID1 (gene ID1) | potency relative to THC |
| --- | --- | --- | --- | --- | --- | --- | --- |
| C=C(C)[C@@H]1CCC(C)=C[C@H]1c1c(O)cc(CCCCC)cc1O [Cannabidiol, cannabidiol] | no affinity | antagonist | agonist | sedative effects | inhibit cancer cell growth | downregulates |  |
| CCCCCCC(C)(C)c1cc(O)c2c(c1)OC(C)(C)[C@@H]1CC=C(CO)C[C@@H]21 [HU-210] |  |  |  |  |  |  | about 100 times |
